Measurements published in ChEMBL document CHEMBL3507680, “University of Dundee, Gates Library screen for HepG2 cell viability”.

Test: Human HepG2 cell viability assay in 384 well format
Format: toxicity, cell-based
Set-up: dose 125 nL, time 70.5 hour; concentration not given beside the values
Settings: HepG2 cells, read-out: Inhibition

Row | SMILES | cytotoxicity at 70.5 h [%]
1 | CCN1CCC(c2cncc(N(C)C)n2)CC1 | 1.63
2 | CC(=O)N1CC(Cc2nccc3ccn(C)c23)C1 | -5.15
3 | c1ncc(Nc2nccc(C3CCCCN3CC3CCCCC3)n2)cn1 (stereo not drawn) | -2.27
4 | O=C(C1CC1)N1CCC(c2nc(O)c3c(n2)CCN(C2CCCC2)C3)C1 (stereo not drawn) | -6.87
5 | CC(=O)N1CCC(c2ccnc(Nc3cnccn3)n2)C1 (stereo not drawn) | -22.3
6 | CCC(=O)N1CCC(Cc2ccccc2-c2ccccc2)(C(N)=O)C1 (stereo not drawn) | -20.3
7 | Cc1nc(CCC(=O)NC2CCC2)cc(C2CCNCC2)n1 | 21.9
8 | Cc1noc(C)c1-c1cccc(CC2CCN(C(=O)c3cc[nH]n3)C2)n1 (stereo not drawn) | -18
9 | CC(=O)N1CCOC(c2cc(N3CC(O)C3)nc(C)n2)C1 (stereo not drawn) | -16.5
10 | Cc1cc(N(C)C)nc(C2(C)CCCN2C(=O)c2cnccn2)n1 (stereo not drawn) | -21.4
11 | CC(=O)Nc1nc(C2CCN(C(=O)c3cccnc3)CC2)cs1 | -15.5
12 | CN1CCN(Cc2cscn2)CC(C(=O)N(C)C)C1 (stereo not drawn) | 15.4
13 | CC(=O)N1CCC(c2cncc(Oc3ccccc3)n2)CC1 | -2.89
14 | CCn1cc(CN2C[C@@H]3CCCN3C[C@@H]2CCSC)c(C)n1 | -22.6
15 | CC(=O)N1CCCC1c1nccc(C)n1 (stereo not drawn) | -9.48
16 | Cc1cnc(N)c(C(=O)C2CCN(C(=O)c3ccccc3F)CC2)c1 | -11.6
17 | C=C(C)C(=O)N1CCC(C(=O)c2cc(C)cnc2N)CC1 | 14.9
18 | Cc1nc(C2CCCN2C(=O)c2ccccc2)ncc1C(N)=O (stereo not drawn) | -7.95
19 | CN(Cc1ccc(F)cc1)CC1(O)CCN(C(=O)c2cccn2C)C1 (stereo not drawn) | -10.7
20 | Cc1ccccc1C(=O)N1CCC(n2nnc3cc(F)ccc32)CC1 | -12.1

Row | SMILES | cytotoxicity at 70.5 h [%]
21 | Cc1cc(-c2cnc(N3CCNC(=O)C3)nc2-c2cccnc2C)on1 | -15.9
22 | COc1ccc(C2Nc3cc(Cl)ccc3C3=NCCN32)cc1OC (stereo not drawn) | 42.1
23 | COc1ccc(C2Nc3ccccc3C3=NCCCN32)cc1OC (stereo not drawn) | 7.54
24 | CC(=O)N1CCC(Cc2cnc(-c3c(C)n[nH]c3C)cn2)C1 (stereo not drawn) | -13.1
25 | Cc1ccc(Nc2nccc(C3CCCN(CC(=O)N(C)C)C3)n2)nc1 (stereo not drawn) | -16.1
26 | NCCn1nc(C2CCN(C(=O)CC3CCCCC3)C2)c2nccnc21 (stereo not drawn) | -7.33
27 | CC1CCCN(CC(=O)N2CCC(c3ncc4c(n3)CCNC4)CC2)C1 (stereo not drawn) | 1.79
28 | CC(C)(C)C(=O)N1CCC(c2nc(O)cc(-c3ccccn3)n2)CC1 | 16
29 | CC(C)(C)c1n[nH]cc1CN1CCc2nc3ccsc3c(=O)n2CC1 | 12.1
30 | O=c1c2ccccc2nc2n1CCN(Cc1cccs1)CC2 | -16.1
31 | Cc1ccc(-c2cc(N)c(=O)n(CC(=O)NCC3CCCCC3)n2)s1 | -16.2
32 | O=C(c1ccncc1)N1CCC(O)(Cn2ccc3ccncc32)CC1 | -13.3
33 | O=C(NCCO)C1(Cc2cc(-c3ccc(F)cc3F)no2)CCOCC1 | -12.3
34 | O=c1c2sccc2nc2n1CCN(Cc1cccs1)CC2 | -18.8
35 | Cc1cc2c(=O)n3c(nc2s1)CCN(C(=O)c1cnn(C)c1C)CC3 | -14.8
36 | CCS(=O)(=O)N1CCC(c2cc3n(n2)[C@@H](C(F)(F)F)C[C@@H](C)N3)CC1 | -17.1
37 | Cc1ccc(S(=O)(=O)N2C[C@H]3C[C@H](NC(=O)c4ccn(C)n4)[C@H]3C2)cc1 | 1.44
38 | Cc1ccc(-c2cc(N)c(=O)n(CC(=O)NC3CCCCC3)n2)s1 | -17.9
39 | O=C(O)C1(Cc2cccc(-c3ccc(F)c(F)c3)c2)CCOCC1 | -19.2
40 | CN1CCC2(CC1)CNC(=O)c1ccccc1O2 | -13.6

Row | SMILES | cytotoxicity at 70.5 h [%]
41 | Fc1ccc(CN2CCCC(c3nnc(-c4cnccn4)o3)C2)cc1F (stereo not drawn) | 0.0269
42 | CC(C)c1ncc(CN2CCCC(CO)C2)cn1 (stereo not drawn) | -8.2
43 | CNc1cc(C)nc(C2CN(Cc3cc[nH]n3)CCO2)c1 (stereo not drawn) | -7.87
44 | CNc1cc(C)nc(C2CN(Cc3ccc(C)nc3)CCO2)c1 (stereo not drawn) | -9.06
45 | O=C(Cc1cccc(F)c1)N1CCCCC1c1ccn2ccnc2n1 (stereo not drawn) | 29.6
46 | Cc1ncc(CNC(=O)CCOc2ccccc2)c(C2CCCN2C)n1 (stereo not drawn) | -8.4
47 | Cc1nc(CC(=O)N2CCCCC2c2ccn3ccnc3n2)cs1 (stereo not drawn) | -12.6
48 | COc1ccc(Cc2cccc(C3CCN(C)CC3)n2)cc1 | -6.68
49 | CN1CCC(c2cccc(Cc3ccc(F)cc3)n2)CC1 | -13.1
50 | Cc1nc(NC2CCCC2)cc(C2CCN2C(=O)c2cccnc2)n1 (stereo not drawn) | -9.69
51 | COCCC(=O)N1CCC(c2noc3nc(C)cc(C(F)(F)F)c23)CC1 | -4.96
52 | CCS(=O)(=O)CCSc1ccc(Cl)cc1 | 27
53 | CN(Cc1nc(C(F)(F)F)cs1)C(=O)CCc1cccnc1 | -10.4
54 | Cc1oc(C(=O)Nc2cccc(Cl)c2C)cc1S(N)(=O)=O | 0.43
55 | O=S(=O)(NCCc1ccccc1C(F)(F)F)N1CCOCC1 | 23.1
56 | O=C1CCN(C(=O)NCCCc2ccc(Cl)cc2Cl)CCN1 | -7.65
57 | CS(=O)(=O)CCCC(=O)Nc1cc(-c2cccc(F)c2F)n[nH]1 | -16.7
58 | COC(=O)c1ccc(S(=O)(=O)N2CCCn3ncnc32)s1 | 0.743
